Laboratory results reported in paper PMC10988555, “Exploiting Co(III)-Cyclopentadienyl Complexes To Develop Anticancer Agents” (Inorganic Chemistry, 2024).

How the values were obtained:
[1] = system: BAX and BCL-2 proteins in A2780 cell line; experiment: BAX and BCL-2 protein expression by Western blot; assay type: cell-based, human; conditions: A2780, IC50, 48 h, normalized against DMSO control (=1)
Procedure: The quantification of BAX and BCL-2 protein expression in the A2780 cell line incubated with different cobalt complexes in the A2780 cell line was determined by WB. For this, the A2780 cell line was cultivated in 25 cm^2 T-flasks at a density of 2 × 10^6 cells/mL and incubated for 24 h in the conditions described above. […] After 48 h incubation, the cells were washed and collected using cold PBS 1× and a cell scraper. The samples were centrifuged for 5 min at 700 × g and resuspended in fresh lysis buffer (150 mM NaCl, 5 mM ethylenediaminetetraacetic acid (EDTA), 50 mM Tris–HCl at pH 8.0, 2% (v/v) NP-40, 1× phosphatase inhibitors (PhosStop, Roche), 1× Protease inhibitors (complete ULTRA tablets, Mini, easypack, Roche), 1 mM phenylmethylsulfonylfuoride (PMSF) and 0.1% 1,4-dithiothreitol (v/v), DTT) and then storage at −80 °C for 2 h or until required. Cells were submitted to 5 ultrasound cycles and centrifuged at 1000 × g for 5 min. The total protein extract (supernatant) was quantified with Pierce Protein Assay Reagent (ThermoFisher Scientific) at 660 nm. […]
The membranes were incubated with WesternBright ECL subtract (Advansta) for 5 min in the dark and the film was exposed to the membranes in a dark room. […] Protein quantification was made by densitometry with ImageJ software.

plasmidic DNA (pUC18) = experiment: Interaction with pDNA and cleavage mechanism (agarose gel electrophoresis); assay type: biochemical; conditions: 25 μM complex with NaN3, catalase or D2O, 24 h
Procedure: E. coli transformed with pUC18 was inoculated onto a plate of LB-agar medium (Luria–Bertani) (Applichem, Darmstadt, Germany) supplemented with ampicillin (100 μg/mL) (Bioline, London, UK) and incubated for 24 h at 37 °C. Then, the E. coli cells were inoculated in liquid LB medium, supplemented with ampicillin (100 μg/mL) for 24 h at 37 °C. After incubation, the plasmid DNA (pDNA) was extracted by using the Kit NZYSpeedy Miniprep, following the instructions provided by the manufacturer.
The extracted pDNA (100 ng) was incubated with 5, 25, 50, and 100 μM concentrations of complexes 2–4, with DMSO 0.1% or only pUC18. The solutions were prepared in 5 mM Tris–HCl, 50 mM NaCl, pH 7.02, buffer, and incubated for 24 h at 37 °C. A control of pDNA cleaved with Hind III endonuclease was also used. Electrophoresis was performed in 0.8% (w/v) agarose gel (NZYtech) in TAE buffer at 70 V constant voltage for 1 h. Electrophoresis gel image was acquired in the Gel Doc EZ Imager (Bio-Rad).
The pDNA (100 ng) was incubated with 25 μM of complexes 2–4, in the absence or presence of 50 μM of NaN3, 4 units of catalase from the bovine liver (2000–5000 U/mg, Sigma-Aldrich, Spain), and 25 mM of D2O. The solutions were prepared in 5 mM Tris–HCl, 50 mM NaCl, pH 7.02, buffer, and incubated for 24 h at 37 °C. A control of pDNA cleaved with Hind III endonuclease was also used. […]

Structure (SMILES) | BAX/BCL-2 ratio [1] | pDNA cleavage mechanism (plasmidic DNA (pUC18))
O=S(=O)([O-])C(F)(F)F.O=S(=O)([O-])C(F)(F)F.[Co+3].c1cc[cH-]c1.c1ccc(P(c2ccccc2)c2ccccc2)cc1.c1cnc2c(c1)ccc1cccnc12 [Complex 3, [Co(η^5-C5H5)(PPh3)(phen)][(CF3SO3)2]] | 2.8 | cleave pDNA through singlet oxygen
Cc1ccnc(-c2cc(C)ccn2)c1.O=S(=O)([O-])C(F)(F)F.O=S(=O)([O-])C(F)(F)F.[Co+3].c1cc[cH-]c1.c1ccc(P(c2ccccc2)c2ccccc2)cc1 [Complex 2, [Co(η^5-C5H5)(PPh3)(Me2bipy)][(CF3SO3)2]] | – | cleave pDNA through singlet oxygen
Nc1cc2cccnc2c2ncccc12.O=S(=O)([O-])C(F)(F)F.O=S(=O)([O-])C(F)(F)F.[Co+3].c1cc[cH-]c1.c1ccc(P(c2ccccc2)c2ccccc2)cc1 [Complex 4, [CoCp(PPh3)(NH2phen)][(CF3SO3)2]] | < 1 | –
